Measured values: patent US20140243332A1, “METHODS OF TREATING CANCERS CHARACTERIZED BY ABERRENT ROS1 ACTIVITY” (Oregon Health & Science University, priority 2013, published 2014)
Values joined by “and” are separate entries in the source; they are usually repeats but may differ in a detail not shown here. Equal values may be shown once. Read-outs that look alike come from different tables or passages of the source.

Tests used:
Ba/F3 FIG-ROS cells [1] = molecular target: T1, Ba/F3 FIG-ROS cells (Homo sapiens, UniProt P08922); assay: Cell viability (MTS) assay, Ba/F3 FIG-ROS; format: cell-based; conditions: read-out: IC50 (50% growth inhibitory concentration); Ba/F3 FIG-ROS cells, 72 hours, MTS
T1 construct: fused on or other part: GFP is co-expressed from an IRES in pMIG and is not fused; Q9HD26 (Golgi-associated PDZ and coiled-coil motif-containing protein)
T1 sequence (P08922 whole entry, change not shown, the tested form may be a part): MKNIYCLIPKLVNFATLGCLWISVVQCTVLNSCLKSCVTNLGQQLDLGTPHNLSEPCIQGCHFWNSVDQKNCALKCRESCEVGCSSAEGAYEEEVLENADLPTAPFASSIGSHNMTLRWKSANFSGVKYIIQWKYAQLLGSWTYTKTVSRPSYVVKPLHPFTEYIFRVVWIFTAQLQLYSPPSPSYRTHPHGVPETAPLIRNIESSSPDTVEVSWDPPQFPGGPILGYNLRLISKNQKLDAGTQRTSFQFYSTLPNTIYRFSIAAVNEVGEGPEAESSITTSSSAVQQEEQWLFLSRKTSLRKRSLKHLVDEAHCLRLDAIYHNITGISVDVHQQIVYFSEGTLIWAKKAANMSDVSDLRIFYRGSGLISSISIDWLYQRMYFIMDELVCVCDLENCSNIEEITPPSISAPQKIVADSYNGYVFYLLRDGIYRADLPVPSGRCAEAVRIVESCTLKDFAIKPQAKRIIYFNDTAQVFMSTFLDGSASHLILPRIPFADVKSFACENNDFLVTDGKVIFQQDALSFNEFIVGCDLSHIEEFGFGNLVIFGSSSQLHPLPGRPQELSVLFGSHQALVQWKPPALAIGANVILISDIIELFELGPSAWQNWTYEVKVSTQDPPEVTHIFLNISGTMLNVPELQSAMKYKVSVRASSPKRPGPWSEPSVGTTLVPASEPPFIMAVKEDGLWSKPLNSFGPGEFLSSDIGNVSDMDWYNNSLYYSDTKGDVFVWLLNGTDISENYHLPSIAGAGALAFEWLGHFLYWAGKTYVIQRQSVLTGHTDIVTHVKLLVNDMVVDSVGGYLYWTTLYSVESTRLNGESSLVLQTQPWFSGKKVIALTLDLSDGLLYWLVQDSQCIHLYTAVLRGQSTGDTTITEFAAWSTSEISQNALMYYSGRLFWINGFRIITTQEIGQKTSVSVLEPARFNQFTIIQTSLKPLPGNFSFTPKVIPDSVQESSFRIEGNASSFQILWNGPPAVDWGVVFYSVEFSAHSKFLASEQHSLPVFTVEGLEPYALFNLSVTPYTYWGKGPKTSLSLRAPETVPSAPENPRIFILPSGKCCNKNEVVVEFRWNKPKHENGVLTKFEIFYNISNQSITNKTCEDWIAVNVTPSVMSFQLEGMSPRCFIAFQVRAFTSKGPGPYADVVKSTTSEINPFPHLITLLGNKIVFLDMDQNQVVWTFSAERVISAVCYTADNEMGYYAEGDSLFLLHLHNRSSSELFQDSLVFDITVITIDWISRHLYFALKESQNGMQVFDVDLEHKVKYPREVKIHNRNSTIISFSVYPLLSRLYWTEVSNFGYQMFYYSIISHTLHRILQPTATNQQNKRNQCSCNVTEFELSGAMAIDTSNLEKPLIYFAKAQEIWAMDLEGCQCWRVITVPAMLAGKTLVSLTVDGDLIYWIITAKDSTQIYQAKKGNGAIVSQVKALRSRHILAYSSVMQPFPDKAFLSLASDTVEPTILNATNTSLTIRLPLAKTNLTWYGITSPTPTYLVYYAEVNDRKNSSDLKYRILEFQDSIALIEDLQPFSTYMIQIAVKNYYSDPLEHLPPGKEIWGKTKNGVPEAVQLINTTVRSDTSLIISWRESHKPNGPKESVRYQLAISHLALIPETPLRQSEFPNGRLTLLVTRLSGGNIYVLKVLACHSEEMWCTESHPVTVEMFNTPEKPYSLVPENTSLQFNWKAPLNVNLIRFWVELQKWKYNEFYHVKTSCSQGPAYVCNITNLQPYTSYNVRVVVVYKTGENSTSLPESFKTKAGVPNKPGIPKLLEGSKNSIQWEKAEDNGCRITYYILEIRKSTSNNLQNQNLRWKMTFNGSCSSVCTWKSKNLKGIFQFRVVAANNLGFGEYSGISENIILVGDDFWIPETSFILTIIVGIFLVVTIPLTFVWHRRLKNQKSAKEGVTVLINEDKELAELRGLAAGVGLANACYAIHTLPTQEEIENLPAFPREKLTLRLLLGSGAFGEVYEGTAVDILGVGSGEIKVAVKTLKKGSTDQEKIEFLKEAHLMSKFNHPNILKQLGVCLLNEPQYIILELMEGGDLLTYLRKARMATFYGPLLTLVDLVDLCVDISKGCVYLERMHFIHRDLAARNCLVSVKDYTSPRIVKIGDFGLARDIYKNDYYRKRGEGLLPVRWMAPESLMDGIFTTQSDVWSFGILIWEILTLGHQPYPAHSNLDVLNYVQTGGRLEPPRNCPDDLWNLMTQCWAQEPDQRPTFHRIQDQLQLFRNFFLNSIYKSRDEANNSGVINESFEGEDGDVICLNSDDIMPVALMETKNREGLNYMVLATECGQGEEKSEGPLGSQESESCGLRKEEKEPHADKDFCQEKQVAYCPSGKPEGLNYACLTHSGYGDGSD
Excerpt: Ba/F3 cell lines were maintained at densities of 0.5×10^6 to 1.5×10^6 per ml of media. FIG-ROS and SLC-ROS Ba/F3 lines were created by infecting the parental Ba/F3 with retrovirus expressing either human FIG-ROS-S (indicated FIG-ROS herein) or SLC-ROS-S (indicated SLC-ROS herein). Stable transfectant lines were sorted for GFP expression on a FACS Aria® flow cytometer. Cells were counted daily using Guava ViaCount® reagent and Guava Personal Cell Analysis® flow cytometer. […] Early passage NIH3T3 cells were infected with retrovirus expressing either FIG-ROS or SLC-ROS and sorted for GFP expression as described above for Ba/F3 cells. […] This media is referred to as RPMI-10% FBS herein.
The FIG-ROS-S (FIG-ROS) fusion protein has been reported in non-small cell lung cancers (NSCLC), glioblastomas, and cholangiocarcinomas.

Ba/F3 SLC-ROS cells [2] = molecular target: T2, Ba/F3 SLC-ROS cells (Homo sapiens, UniProt P08922); assay: Apoptosis induction (Annexin V / 7-AAD), Ba/F3 SLC-ROS; format: cell-based; conditions: 15 nM, 48 hours
T2 construct: SLC-ROS-S (SLC-ROS) was cloned from cDNA made from HCC78 cells; fused on or other part: GFP is co-expressed from an IRES in pMIG and is not fused; O95436 (Sodium-dependent phosphate transport protein 2B)
T2 sequence (P08922 whole entry, change not shown, the tested form may be a part): as above
Protocol: (§1) FIG. 5A is a set of three bar graphs depicting the induction of apoptosis in Ba/F3 FIG-ROS, Ba/F3 SLC-ROS and Ba/F3 ALK F1174L cells after 48 hours of treatment with the indicated doses of the indicated compounds. The number of cells that were Annexin V and 7-AAD positive after inhibitor treatment was normalized to number of cells staining positive with these markers with vehicle treatment (basal). A minimum of 2000 cells were counted per condition. Rate of apoptosis is shown as fold over basal. Basal apoptosis in Ba/F3 FIG-ROS, Ba/F3 SLC-ROS and Ba/F3 ALK F1174 cells was 3.6%, 2.8% and 1.2% respectively.

Ba/F3 FIG-ROS cells [3] = molecular target: T1, Ba/F3 FIG-ROS cells; assay: Apoptosis induction (Annexin V / 7-AAD), Ba/F3 FIG-ROS; format: cell-based; conditions: 15 nM, 48 hours
Protocol: as §1

FIG-ROS [4] = molecular target: T3, FIG-ROS (Homo sapiens, UniProt P08922); assay: Immunoblot of Ba/F3 FIG-ROS lysates; format: cell-based; design: expressed in transfected cells; host or cells: Ba/F3 (A14), retroviral pMSCV-IRES-GFP; the other entry of the earlier key: GOPC (Q9HD26, Golgi-associated PDZ and coiled-coil motif-containing protein); conditions: Ba/F3 FIG-ROS cells, increasing amounts, immunoblot FIG. 1C
T3 sequence (P08922 with tags, fused parts or gaps): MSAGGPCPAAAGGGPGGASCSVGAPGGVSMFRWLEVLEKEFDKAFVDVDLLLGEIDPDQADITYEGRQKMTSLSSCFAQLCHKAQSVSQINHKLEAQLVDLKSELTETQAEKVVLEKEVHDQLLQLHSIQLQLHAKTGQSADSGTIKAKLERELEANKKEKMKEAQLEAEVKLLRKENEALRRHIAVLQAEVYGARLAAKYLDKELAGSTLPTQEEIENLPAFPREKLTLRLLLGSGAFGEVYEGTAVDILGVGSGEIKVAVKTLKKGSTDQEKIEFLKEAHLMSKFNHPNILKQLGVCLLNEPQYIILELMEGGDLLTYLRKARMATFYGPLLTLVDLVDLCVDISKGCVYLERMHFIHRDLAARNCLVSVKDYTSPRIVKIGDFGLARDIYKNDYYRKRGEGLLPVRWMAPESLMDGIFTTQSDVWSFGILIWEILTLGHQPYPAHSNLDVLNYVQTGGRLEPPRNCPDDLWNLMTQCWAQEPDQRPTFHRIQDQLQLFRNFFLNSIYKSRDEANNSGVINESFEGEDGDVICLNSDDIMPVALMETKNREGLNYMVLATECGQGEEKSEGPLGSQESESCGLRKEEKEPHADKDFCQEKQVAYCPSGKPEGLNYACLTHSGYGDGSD
Protocol: (§2) FIG. 1C is an image of an immunoblot of lysates of Ba/F3 FIG-ROS and Ba/F3 SLC-ROS and the indicated downstream effectors after treatment with the indicated compounds. Images shown are representative of three independent experiments.
(§3) Ba/F3 FIG-ROS, Ba/F3 SLC-ROS, HCC78 and mCC cell lines were treated with the indicated concentration of inhibitors for 1-2 hours. […] The protein content of the cell lysates was determined and lysates were either used for immunoprecipitation where indicated or extracted with SDS Sample buffer for 15 minutes at 80° C. Proteins were transferred to Immobilon-FL membranes and immunoblotted with antibodies specific for phospho-ROS1 (Cell Signaling Technology (CST) #3078), total ROS1 (CST #3266), phopsho-Shp2 (CST #3751), total Shpt (CST #3752), phospho-Stat3 (CST #9145), total Stat3 (CST #4904), phospho-Erk1/2 (CST #9101), total Erk2 (Santa Cruz #SC-1647), phospho-S6 (CST #4858), total S6 (CST #2216), phospho-Src (CST #2105), total Src (CST #2110), α-tubulin (Sigma T6199), or β-actin (Sigma A1978) as indicated. Images of the blots were generated by the LI-COR Odyssey® imaging system, following the manufacturer's protocol for immunoblot detection with use of IR-dye conjugated secondary antibodies.

SLC-ROS = SLC-ROS (Homo sapiens, UniProt P08922); assay: Immunoblot of Ba/F3 SLC-ROS lysates; format: cell-based; design: SLC34A2 N-terminal portion, fusion partner; expressed in transfected cells; host or cells: Ba/F3 (A15), retroviral pMIG; the other entry of the earlier key: SLC34A2 (O95436, Sodium-dependent phosphate transport protein 2B); conditions: Ba/F3 SLC-ROS cells, increasing amounts, immunoblot FIG. 1C
SLC-ROS, sequence (P08922 with tags, fused parts or gaps): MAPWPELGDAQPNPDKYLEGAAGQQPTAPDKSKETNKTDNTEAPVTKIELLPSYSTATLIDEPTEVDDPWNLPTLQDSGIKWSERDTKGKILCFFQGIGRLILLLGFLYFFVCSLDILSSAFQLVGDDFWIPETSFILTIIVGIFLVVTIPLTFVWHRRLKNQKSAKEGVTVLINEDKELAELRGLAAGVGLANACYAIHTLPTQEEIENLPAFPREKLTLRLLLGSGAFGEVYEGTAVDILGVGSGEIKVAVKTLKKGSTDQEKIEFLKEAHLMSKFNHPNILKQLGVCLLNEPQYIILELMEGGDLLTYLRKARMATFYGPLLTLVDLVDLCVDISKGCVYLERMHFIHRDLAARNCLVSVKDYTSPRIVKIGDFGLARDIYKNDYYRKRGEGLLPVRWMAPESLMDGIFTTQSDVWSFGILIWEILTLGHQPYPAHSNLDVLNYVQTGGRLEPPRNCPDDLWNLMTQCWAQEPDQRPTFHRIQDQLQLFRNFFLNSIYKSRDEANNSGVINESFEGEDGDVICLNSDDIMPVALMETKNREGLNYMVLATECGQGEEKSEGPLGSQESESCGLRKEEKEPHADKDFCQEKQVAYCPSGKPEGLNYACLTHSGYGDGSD
Protocol: as §2, §3

Ba/F3 parental cells = assay: Cell viability (MTS) assay, Ba/F3 parental; format: cell-based; conditions: Mus musculus
Protocol: (§4) The parental Ba/F3 cell line was cultured in RPMI 1640 medium with 10% FBS, L-glutamine, penicillin/streptomycin and 15% WEHI-conditioned media. Ba/F3 cell lines were maintained at densities of 0.5×10^6 to 1.5×10^6 per ml of media. FIG-ROS and SLC-ROS Ba/F3 lines were created by infecting the parental Ba/F3 with retrovirus expressing either human FIG-ROS-S (indicated FIG-ROS herein) or SLC-ROS-S (indicated SLC-ROS herein). Stable transfectant lines were sorted for GFP expression on a FACS Aria® flow cytometer. Cells were counted daily using Guava ViaCount® reagent and Guava Personal Cell Analysis® flow cytometer. […] Early passage NIH3T3 cells were infected with retrovirus expressing either FIG-ROS or SLC-ROS and sorted for GFP expression as described above for Ba/F3 cells. HCC78 cells were cultured in RPMI 1640 medium with 10% FBS, L-glutamine, and penicillin/streptomycin. This media is referred to as RPMI-10% FBS herein.
(§5) […]. The Ba/F3 parental line was also tested. (O'Dwyer M E and Druker B J, Lancet Oncology 1, 207-211 (2000); Walters D K et al, Cancer Cell 10, 65-75 (2006); and Heukamp L C et al, Science Translational Medicine 4, 141ra191 (2012); […].

HCC78 cells = assay: Cell viability (MTS) assay, HCC78; format: cell-based, human; conditions: for HCC78 cell growth sensitivity to MET inhibitors: FIG. 6C
Protocol: as §4

Ba/F3 SLC-ROS cells [5] = molecular target: T2, Ba/F3 SLC-ROS cells; assay: Cell viability (MTS) assay, Ba/F3 SLC-ROS; format: cell-based; conditions: 72 hours, read-out: IC50 (the source's name)
Protocol: as §4, §5

[6] = system: shPten murine cholangiocarcinoma tumor cells; assay: cells; conditions: Mus musculus, read-out: IC50 cell growth
Protocol: (§6) Hepatoblasts of the genotype AlbCre^+/−; Isl Kras^G12D+/−; p53^R172H/loxp were isolated from ED14.5 mouse embryos and retrovirally transduced with either the FIG-ROS fusion, turbo RFP or a short hairpin RNA against Pten (shPten.1522). At 48 hours following transduction, 1×10^6 cells were resuspended in 25 μl Matrigel and injected sub-capsular into the livers of immune-deficient mice. Upon tumor formation, tumors were explanted and subjected to collagenase digestion. Digests were plated onto gelatin-coated plates. Tumor cells were enriched by either differential trypsinization or cell sorting. […] These four cell lines were further cultured and maintained in DMEM-High glucose medium supplemented with 10% FCS, L-glutamine and penicillin/streptomycin.
(§7) Cell lines were distributed in 96-well plates and incubated with the indicated concentrations of inhibitor for 72 hours. […] Ba/F3 cell lines were plated at 4×10^3 cells/well. HCC78 and mCC cell lines were plated at 1.5×10^3 cells/well. All cell types were seeded in a final volume of 80 microliters. A 20 microliter volume of five-fold concentrated inhibitor media was added. Cell proliferation was measured using a […] viability assay (CellTiter96 Aqueous One® Solution; Promega). A BioTek Synergy 2® plate reader was used to read the absorbance at 490 nm at 30 minutes and 1 hour after addition of MTS. To facilitate comparison between experiments, the raw MTS absorbance of vehicle (0.1% DMSO) treated cells was set to 1 and absorbance from inhibitor treated wells was normalized to the vehicle treated value. […] Data were normalized using Microsoft Excel® and further non-linear regression curve fit analysis of the normalized data for determination of IC50 was performed using Graphpad Prism® software.
(§8) To directly assess inhibition of FIG-ROS phosphorylation, immunoblot analyses of lysates from vehicle or inhibitor-treated cells were performed.

[7] = system: FIG-ROS murine cholangiocarcinoma tumor cells; assay: cells; conditions: Mus musculus, read-out: IC50 cell growth
Protocol: as §6, §7, §8

FIG-ROS tumors = assay: In vivo treatment of mice bearing subcutaneous FIG-ROS cholangiocarcinoma tumors; conditions: 25 mg/kg oral gavage once daily, 9 days, immunodeficient mice; foretinib p<0.0001 for Lines 4 and 6
[8] = system: ENU-treated Ba/F3 FIG-ROS cells; assay: Accelerated cell-based (ENU) mutagenesis screen, outgrowth of Ba/F3 FIG-ROS clones
FIG-ROS [9] = molecular target: T3, FIG-ROS; assay: Immunoblot of FIG-ROS murine cholangiocarcinoma cell lysates; format: cell-based; design: expressed in transfected cells; host or cells: murine cholangiocarcinoma tumour cell lines (lines 3 and 4) derived from transduced mouse hepatoblasts; the other entry of the earlier key: GOPC (Q9HD26, Golgi-associated PDZ and coiled-coil motif-containing protein); conditions: 100 nM, FIG-ROS murine cholangiocarcinoma cells
Protocol: […]. Images shown are representative of three independent experiments.
as §3
(§9) . The inhibition was dose dependent (FIG. 2B). […].

[10] = system: FIG-ROS cholangiocarcinoma tumor cells; assay: Anchorage-independent colony formation in soft agar, FIG-ROS cholangiocarcinoma cells; format: cell-based, murine; conditions: dose dependent
Excerpt: […]. The values indicate the mean and the error bars indicate the standard error of the mean of 3 independent wells.
as §9

PC9 cells = assay: Cell viability assay, PC9; format: cell-based, human; conditions: PC9 cells (activated EGFR), FIG. 6B
Protocol: (§10) IC50 was determined from non-linear regression curve fit analysis of the dose response curves.

HCC4011 cells = assay: Cell viability assay, HCC4011; format: cell-based, human; conditions: HCC4011 cells (activated EGFR), FIG. 6B
Protocol: as §10

[11] = BaF3, Ba/F3 parental cells, read-out: IC50 (insensitive/resistant up to stated concentration)

| SMILES | GI50 (Ba/F3 FIG-ROS cells [1]) | autophosphorylation of FIG-ROS and ROS1-driven signaling (phospho-Shp2, phospho-ERK1/2) (FIG-ROS [4]) | autophosphorylation of SLC-ROS and ROS1-driven signaling (phospho-Shp2, phospho-ERK1/2) (SLC-ROS) | IC50 (Ba/F3 parental cells; [11]) | HCC78 cell growth sensitivity to MET inhibitors (HCC78 cells) | sensitivity of cell growth (PC9 cells) | sensitivity of cell growth (HCC4011 cells) | further results |
| --- | --- | --- | --- | --- | --- | --- | --- | --- |
| Cn1c2ccccc2c2c3c(c4c5ccccc5n(CCC#N)c4c21)CNC3=O [Gö6976, 12-(2-cyanoethyl)-6,7,12,13-tetrahydro-13-methyl-5-oxo-5H-indolo(2,3-a)pyrrolo(3,4-c)-carbazole] | 0.0014 µM | dose dependent decrease | dose dependent decrease | > 2 µM | – | – | – | apoptosis induction (Ba/F3 SLC-ROS cells [2]): induced apoptosis; apoptosis induction (Ba/F3 FIG-ROS cells [3]): induced apoptosis |
| Cn1cc(-c2ccc3nnc(C(F)(F)c4ccc5ncccc5c4)n3n2)cn1 [JNJ38877605] | – | – | – | – | resistant | – | – | – |
| Cn1cc(-c2ccc3nnc(Sc4ccc5ncccc5c4)n3n2)cn1 [SGX-523] | – | – | – | – | resistant | – | – | – |
| COc1cc(N2CCC(N3CCN(C)CC3)CC2)ccc1Nc1ncc(Cl)c(Nc2ccccc2S(=O)(=O)C(C)C)n1 [TAE684] | 0.002 µM and 0.0018 µM | dose dependent decrease | dose dependent decrease | > 2 µM | – | – | – | GI50 (Ba/F3 SLC-ROS cells [5]): 0.028 µM |
| C[C@@H](Oc1cc(-c2cnn(C3CCNCC3)c2)cnc1N)c1c(Cl)ccc(F)c1Cl [crizotinib] | – | dose dependent decrease | dose dependent decrease | – | – | relatively insensitive | relatively insensitive | IC50 [6]: > 2 µM; IC50 [7]: 0.69 µM; FIG-ROS tumor volume (FIG-ROS tumors): moderate but statistically insignificant effect; frequency of outgrowth of clones ([8]; 500 nM crizotinib): 40%; outgrowth of clones ([8]; 2000 and 2500 nM crizotinib): no outgrowth of clones; auto-phosphorylation of FIG-ROS and phosphorylation of Shpt and ERK1/2 (FIG-ROS [9]): more moderate effect; anchorage-independent colonies in soft agar [10]: inhibited; IC50 (HCC78 cells; Homo sapiens, 72 hour exposure, read-out: IC50 HCC78 cell growth): 2.2 µM; IC50 (Ba/F3 parental cells; BaF3, read-out: IC50 (insensitive/resistant up to stated concentration)): > 2 µM |
| C#Cc1cccc(Nc2ncnc3cc(OCCOC)c(OCCOC)cc23)c1 [erlotinib] | – | – | – | – | – | sensitive | sensitive | – |
